Assay results published in patent EP3056202A1, “BENZOPYRROLIDONE DERIVATIVES POSSESSING ANTIVIRAL AND ANTICANCER PROPERTIES” (Max-Planck-Gesellschaft zur Förderung der Wissenschaften …, priority 2015, dated 2016).
pEC50, pIC50: −log10 of the molar value. In brackets after ≈: the same amount, converted by molar mass.

Columns and labels:
[1] = system: A549 human lung carcinoma cells; assay: Cell-based EC50 determination, A549 cells (CellTiter-Glo cell viability); conditions: A549, 24 h, read-out: A549 EC50 24h
Protocol: A549 human lung carcinoma cells were cultured in RPMI 1640 medium (Sigma) supplemented with 10% fetal bovine serum (Sigma) and Antibiotic-Antimycotic (Sigma) in tissue culture flasks at 37°C in a humidified 5% CO2 atmosphere. Cells were routinely assayed for mycoplasma contamination.
Two thousand cells were plated in 384-well tissue culture plates, and treated after 24 hours with a 10-point dilution series of the compounds (1.5 nM-30 uM), using the vehicle, DMSO as control. Cells were incubated for 24 hours after which the relative cell density was determined by CellTiter-Glo Luminescent Cell Viability Assay (Promega). This method determines the number of metabolically active cells in the culture based on quantitation of the ATP present. The luminescent signal was measured with an Analyst GT multimode reader (Molecular Devices). […]

physchem = format: physicochemical; conditions: kinetic from dmso stock
Protocol: Samples were diluted in DMSO (control), phosphate buffer pH = 7.4 and pH = 2.0, from 5mM stock solutions (solved in DMSO), with a 120 µM final concentration. The samples were incubated for 24 hours at room temperature followed by 30 minutes centrifugation at 3700 rpm. 40 µl of the supernatants were injected into HPLC (Waters 2795 Alliance HPLC equipped with Waters 996 PDA Detector (HPLC column: Waters XBridge, RP C18, 3.5 µm, 4.6 mm x 50 mm; gradient MeCN/H2O, containing 0.1% HCOOH: 5% MeCN (0.5 min), 5% to 95% MeCN (5 min), 95% MeCN (0.5 min); flow rate: 2.0 ml/min)) and the AUC values (measured on sample specific wavelength) of the buffered samples were divided by the AUC values (same wavelength as buffered samples') of the DMSO control samples. Table 3: Solubility in water for several compounds according to general formula (I)

[2] = system: H1 N1 influenza virus strain A/WSN/33; assay: microbe, parasite or virus in culture; format: cell-based; conditions: 36 h, read-out: Influenza replication IC50
human Akt1 kinase = human Akt1 kinase (Homo sapiens, UniProt P31749); assay: In vitro Akt1 assay (IMAP fluorescence polarization, phosphorylation of TAMRA-peptide); format: biochemical; conditions: 40 µM ATP
Protocol: The inhibition of Akt1 by the compounds described in the present invention were determined measuring the phosphorylation of a fluorescently-labeled peptide (TAMRA-peptide) by human Akt1 kinase by fluorescent polarization using a commercially available IMAP Screening Express Assay Kit (Molecular Devices).
Akt1 kinase assays were performed in low protein binding 384-well plates (Corning). Test compounds were diluted in 100% DMSO to 5 mM stock concentration and then further dilutions were made in H2O or 100% DMSO to desirable concentrations.
Each reaction consisted of 5 nM enzyme: Akt1 kinase, 400 nM TAMRA-peptide (5-TAMRA-GRTGRRNSI-COOH; Genecust), 40 µM ATP and kinase buffer: 20 mM MES pH6, 1 mM DTT, 10 mM MgCl2, 2 mM MnCl2, 0.01 V/V% TritonX (all reagents from Sigma-Aldrich).
(§1) For each reaction, 4 or 6 µl containing TAMRA-peptide, ATP and kinase buffer were combined with 2 µl diluted compound in H2O or 0.02 µl compound in 100% DMSO. The kinase reaction was started by the addition of 2 µl diluted enzyme. The reaction was allowed to run for 1 hour at room temperature. The reaction was stopped by adding 15 µl IMAP beads (1:400 beads in progressive (75% buffer A, 25% buffer B) 1x buffer). After an additional hour, fluorescent polarization (Ex: 550-10 nm, Em: 590-10 nm, Dich: 561 nm) was measured using an Analyst GT (Molecular Devices).

[3] = system: HKE3 human colon carcinoma cell line; assay: In vitro growth inhibition of colon carcinoma cells, HKE3 (CellTiter-Glo); format: cell-based; conditions: 72 hours incubation
[4] = system: HepG2 hepatoblastomaderived cell line; assay: In vitro growth inhibition, HepG2 (CellTiter-Glo); format: cell-based; conditions: Homo sapiens, 72 hours incubation
human Clk1 kinase = biological target: T1, human Clk1 kinase (Homo sapiens, UniProt P49759); assay: In vitro Clk1 assay (IMAP fluorescence polarization); format: biochemical; conditions: 0.45 µM ATP
T1 construct: Each reaction consisted of 4 nM enzyme: Clk1 kinase domain
Protocol: The activity of the compounds described in the present invention can be determined by the following kinase assay, which measures the phosphorylation of a fluorescently-labeled peptide by human Clk1 kinase by fluorescent polarization using a commercially available IMAP Screening Express Assay Kit (Molecular Devices).
Clk1 kinase assays were performed in low protein binding 384-well plates (Corning). Test compounds were diluted in 100% DMSO to 5 mM stock concentration and then further dilutions were made in H2O or 100% DMSO to desirable concentrations.
Each reaction consisted of 4 nM enzyme: Clk1 kinase domain, 400 nM TAMRA-AFRREWSPGKEAKK-NH2 (Genecust), 0.45 µM ATP (Sigma) and kinase buffer: 20 mM TRIS pH 8, 1 mM DTT, 0.4 mM MgCl2, 0.4 mM MnCl2, 0.01 V/V% Tween20 (all reagents from Sigma-Aldrich)
as §1, with “(1:600” for “(1:400”, “(80 %” for “(75%”, “20%” for “25%”

[5] = system: HCT-116 human colon carcinoma cell line; assay: In vitro growth inhibition of colon carcinoma cells, HCT-116 (CellTiter-Glo); format: cell-based; conditions: 72 hours incubation, read-out: HCT116 EC50
human Ack1 kinase = human Ack1 kinase (Homo sapiens, UniProt Q07912); assay: In vitro Ack1 assay (TranScreener ADP2 FP, generation of ADP); format: biochemical; conditions: 12.5 uM compound; 3.5 µM ATP; read-out: Ack1 inh% @12.5 uM
Protocol: The activity of the compounds described in the present invention can be determined by the following kinase assay, which measures the generation of ADP by human Ack1 kinase by fluorescent polarization using a commercially available TranScreener ADP2 FP Assay Kit (BellBrook Labs).
Ack1 kinase assays were performed in low protein binding 384-well plates (Corning). Test compounds were diluted in 100% DMSO to 5 mM stock concentration and then further dilutions were made in H2O or 100% DMSO to desirable concentrations.
Each reaction consisted of 5 nM enzyme: Ack1 kinase, Poly Glu-Tyr (4:1) (Sigma), 3.5 µM ATP and kinase buffer: 20 mM HEPES pH7.5, 1 mM DTT, 2 mM MgCl2, 0.4 mM MnCl2, 0.01 V/V% Tween20 (all reagents from Sigma-Aldrich)
For each reaction, 4 or 6 µl containing Poly Glu-Tyr (4:1), ATP and kinase buffer were combined with 2 µl diluted compound in H2O or 0.02 µl compound in 100% DMSO. The kinase reaction was started by the addition of 2 µl diluted enzyme. The reaction was allowed to run for 1 hour at room temperature. The reaction was stopped by addition of 8 µl ADP detection mixture (1 x) (1 x Detection buffer + 4.78 µg/ml ADP2 Ab + 4 nM ADP Alexa633 Tracer). After an additional hour, fluorescent polarization (Ex: 630-35 nm, Em: 680-30 nm, Dich: 650 nm) was measured using an Analyst GT (Molecular Devices).

Chain of human Akt1 kinase (P31749 whole entry): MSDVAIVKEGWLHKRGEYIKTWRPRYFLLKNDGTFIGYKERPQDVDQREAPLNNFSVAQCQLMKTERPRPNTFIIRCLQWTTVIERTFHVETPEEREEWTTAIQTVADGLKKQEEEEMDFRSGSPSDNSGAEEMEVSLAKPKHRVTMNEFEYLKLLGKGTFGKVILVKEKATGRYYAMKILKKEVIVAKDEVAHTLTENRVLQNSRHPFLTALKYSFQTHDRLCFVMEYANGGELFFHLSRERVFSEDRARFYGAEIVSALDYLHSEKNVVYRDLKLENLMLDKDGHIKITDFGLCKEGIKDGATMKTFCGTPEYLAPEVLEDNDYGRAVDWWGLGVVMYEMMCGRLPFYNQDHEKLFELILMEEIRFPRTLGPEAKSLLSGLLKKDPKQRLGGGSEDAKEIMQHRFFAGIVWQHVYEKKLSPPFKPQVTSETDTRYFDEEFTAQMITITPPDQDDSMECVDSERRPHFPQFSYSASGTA
T1 sequence (P49759 161-477 limits assumed): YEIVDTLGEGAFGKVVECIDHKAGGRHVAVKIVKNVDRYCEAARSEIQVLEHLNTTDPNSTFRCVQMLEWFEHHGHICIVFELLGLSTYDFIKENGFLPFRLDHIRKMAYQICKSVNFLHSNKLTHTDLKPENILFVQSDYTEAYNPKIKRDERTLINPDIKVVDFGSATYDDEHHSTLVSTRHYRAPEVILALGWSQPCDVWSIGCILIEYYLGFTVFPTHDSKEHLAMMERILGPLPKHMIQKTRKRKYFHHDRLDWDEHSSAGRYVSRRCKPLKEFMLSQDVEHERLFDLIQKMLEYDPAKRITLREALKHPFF
Chain of human Ack1 kinase (Q07912 whole entry): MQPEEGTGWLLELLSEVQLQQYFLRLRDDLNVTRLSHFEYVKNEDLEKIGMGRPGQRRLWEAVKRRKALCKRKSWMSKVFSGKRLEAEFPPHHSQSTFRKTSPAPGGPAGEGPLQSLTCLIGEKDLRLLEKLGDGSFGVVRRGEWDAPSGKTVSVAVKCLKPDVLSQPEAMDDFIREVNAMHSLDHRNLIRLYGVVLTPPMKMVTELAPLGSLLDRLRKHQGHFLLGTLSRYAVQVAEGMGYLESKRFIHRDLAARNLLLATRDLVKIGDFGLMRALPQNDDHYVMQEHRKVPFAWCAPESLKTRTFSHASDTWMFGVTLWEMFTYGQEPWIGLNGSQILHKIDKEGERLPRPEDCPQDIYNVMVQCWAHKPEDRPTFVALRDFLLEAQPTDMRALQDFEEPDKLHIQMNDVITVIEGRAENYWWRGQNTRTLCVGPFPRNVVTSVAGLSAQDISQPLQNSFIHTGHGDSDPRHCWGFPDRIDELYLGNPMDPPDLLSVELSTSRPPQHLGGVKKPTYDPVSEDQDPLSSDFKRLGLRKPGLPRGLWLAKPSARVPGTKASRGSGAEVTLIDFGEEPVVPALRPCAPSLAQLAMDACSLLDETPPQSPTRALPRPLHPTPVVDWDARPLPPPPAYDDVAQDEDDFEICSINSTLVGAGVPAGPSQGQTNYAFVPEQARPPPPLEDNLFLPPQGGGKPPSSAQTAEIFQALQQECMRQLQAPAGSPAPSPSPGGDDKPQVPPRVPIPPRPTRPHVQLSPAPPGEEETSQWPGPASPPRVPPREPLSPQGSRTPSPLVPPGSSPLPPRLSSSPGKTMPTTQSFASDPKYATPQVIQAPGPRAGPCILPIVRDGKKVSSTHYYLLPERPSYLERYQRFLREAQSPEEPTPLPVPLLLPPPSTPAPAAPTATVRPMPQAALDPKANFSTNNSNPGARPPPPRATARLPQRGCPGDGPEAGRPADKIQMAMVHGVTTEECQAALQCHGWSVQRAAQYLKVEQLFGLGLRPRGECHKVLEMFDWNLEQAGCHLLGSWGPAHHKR

CC[C@@H](NC(=O)c1ccc2c(c1)/C(=C(/Nc1cccc(CN3CCCCC3)c1)c1ccccc1)C(=O)N2)c1ccccc1 [Compound 12, (3Z)-2-oxo-3-(phenyl{[3-(piperidin-1-ylmethyl)phenyl]amino}methylene)-N-[(1R)-1-phenylpropyl]indoline-5-carboxamide]
pEC50 [1]: 5.16 | solubility at 24 h (physchem; pH 2, aqueous buffer): 110 to 120 µM (≈ 62.8 to 68.5 µg/mL) | solubility at 24 h (physchem; pH 7.4, aqueous buffer): < 10 µM | pIC50 [2]: 8.00 | inhibition at 12.5 µM (human Akt1 kinase; 12.5 uM compound, read-out: Akt1 inh% @12.5 uM): 75.1% | pIC50 (human Akt1 kinase): 5.10 | pEC50 [3]: 7.70 | pEC50 [4]: 5.45 | pIC50 (human Clk1 kinase): 6.68 | pEC50 [5]: 7.52 | inhibition at 12.5 µM (human Ack1 kinase): 18.1%

CC[C@H](NC(=O)c1ccc2c(c1)/C(=C(/Nc1ccc(CN3CCCCC3)cc1)c1ccccc1)C(=O)N2)c1ccccc1 [Compound 32, (3Z)-2-oxo-3-(phenyl{[4-(piperidin-1-ylmethyl)phenyl]amino}methylene)-N-[(1S)-1-phenylpropyl]indoline-5-carboxamide]
pEC50 [1]: 5.20 | solubility at 24 h (physchem; pH 2, aqueous buffer): 110 to 120 µM (≈ 62.8 to 68.5 µg/mL) | solubility at 24 h (physchem; pH 7.4, aqueous buffer): < 10 µM | pIC50 [2]: 5.00 | pIC50 (human Akt1 kinase): < 4.90 | pIC50 (human Clk1 kinase): 7.00

COc1cccc([C@@H](C)NC(=O)c2ccc3c(c2)/C(=C(/Nc2ccc(CN4CCN(C)CC4)cc2)c2ccccc2)C(=O)N3)c1 [Compound 35, (3Z)-N-[(1R)-1-(3-methoxyphenyl)ethyl]-3-[({4-[(4-methylpiperazin-1-yl)methyl]phenyl}amino)(phenyl)methylene]-2-oxoindoline-5-carboxamide]
pEC50 [1]: 5.30 | solubility at 24 h (physchem; pH 2, aqueous buffer): 110 to 120 µM (≈ 66.2 to 72.2 µg/mL) | solubility at 24 h (physchem; pH 7.4, aqueous buffer): 10 to 20 µM (≈ 6.02 to 12 µg/mL) | pIC50 [2]: 7.70 | pIC50 (human Akt1 kinase): 5.60 | pEC50 [3]: 7.70 | pEC50 [4]: 5.67 | pIC50 (human Clk1 kinase): 8.00 | pEC50 [5]: 7.52

C[C@@H](NC(=O)c1ccc2c(c1)/C(=C(/Nc1ccc(CN3CCN(C)CC3)cc1)c1ccccc1)C(=O)N2)c1cccc(Cl)c1 [Compound 36, (3Z)-N-[(1R)-1-(3-chlorophenyl)ethyl]-3-[({4-[(4-methylpiperazin-1-yl)methyl]phenyl}amino)(phenyl)methylene]-2-oxoindoline-5-carboxamide]
pEC50 [1]: 5.75 | solubility at 24 h (physchem; pH 2, aqueous buffer): 100 to 110 µM (≈ 60.6 to 66.7 µg/mL) | solubility at 24 h (physchem; pH 7.4, aqueous buffer): < 10 µM | pIC50 [2]: > 8.00 | pIC50 (human Akt1 kinase): 6.48 | pEC50 [3]: 7.70 | pEC50 [4]: 6.19 | pIC50 (human Clk1 kinase): 7.70 | pEC50 [5]: 7.70

CC[C@@H](NC(=O)c1ccc2c(c1)/C(=C(/Nc1ccc(CN3CCN(C)CC3)cc1)c1ccccc1)C(=O)N2)c1ccccc1 [Compound 37, (3Z)-3-[({4-[(4-methylpiperazin-1-yl)methyl]phenyl}amino)(phenyl)methylene]-2-oxo-N-[(1R)-1-phenylpropyl]indoline-5-carboxamide]
pEC50 [1]: 5.70 | solubility at 24 h (physchem; pH 2, aqueous buffer): 110 to 120 µM (≈ 64.4 to 70.3 µg/mL) | solubility at 24 h (physchem; pH 7.4, aqueous buffer): < 10 µM | pIC50 [2]: > 8.00 | pIC50 (human Akt1 kinase): 5.69 | pEC50 [3]: > 8.82 | pEC50 [4]: 6.44 | pIC50 (human Clk1 kinase): 8.00 | pEC50 [5]: 9.00

C[C@@H](NC(=O)c1ccc2c(c1)/C(=C(/Nc1ccc(CN3CCN(C)CC3)cc1)c1ccccc1)C(=O)N2)c1ccccc1 [Compound 38, (3Z)-3-[({4-[(4-methylpiperazin-1-yl)methyl]phenyl}amino)(phenyl)methylene]-2-oxo-N-[(1R)-1-phenylethyl]indoline-5-carboxamide]
pEC50 [1]: 5.44 | solubility at 24 h (physchem; pH 2, aqueous buffer): 110 to 120 µM (≈ 62.9 to 68.6 µg/mL) | solubility at 24 h (physchem; pH 7.4, aqueous buffer): 10 to 20 µM (≈ 5.72 to 11.4 µg/mL) | pIC50 [2]: > 8.00 | pIC50 (human Akt1 kinase): 5.74 | pEC50 [3]: 8.00 | pEC50 [4]: 5.95 | pIC50 (human Clk1 kinase): 8.00 | pEC50 [5]: 8.00

COc1ccc(CNC(=O)c2ccc3c(c2)/C(=C(/Nc2ccc(CN4CCN(C)CC4)cc2)c2ccccc2)C(=O)N3)cc1OC [Compound 39, (3Z)-N-(3,4-dimethoxybenzyl)-3-[({4-[(4-methylpiperazin-1-yl)methyl]phenyl}amino)(phenyl)methylene]-2-oxoindoline-5-carboxamide]
pEC50 [1]: 4.73 | solubility at 24 h (physchem; pH 2, aqueous buffer): 110 to 120 µM (≈ 68 to 74.1 µg/mL) | solubility at 24 h (physchem; pH 7.4, aqueous buffer): < 10 µM | pIC50 [2]: 7.00 | pIC50 (human Akt1 kinase): 4.91 | pEC50 [3]: 5.53 | pEC50 [4]: 4.62 | pIC50 (human Clk1 kinase): 8.00 | pEC50 [5]: 5.42

COc1cccc(CNC(=O)c2ccc3c(c2)/C(=C(/Nc2ccc(CN4CCN(C)CC4)cc2)c2ccccc2)C(=O)N3)c1 [Compound 40, (3Z)-N-(3-methoxybenzyl)-3-[({4-[(4-methylpiperazin-1-yl)methyl]phenyl}amino)(phenyl)methylene]-2-oxoindoline-5-carboxamide]
pEC50 [1]: 4.83 | solubility at 24 h (physchem; pH 2, aqueous buffer): 110 to 120 µM (≈ 64.6 to 70.5 µg/mL) | solubility at 24 h (physchem; pH 7.4, aqueous buffer): < 10 µM | pIC50 [2]: > 8.00 | pIC50 (human Akt1 kinase): 5.47 | pEC50 [3]: 7.10 | pEC50 [4]: 5.00 | pIC50 (human Clk1 kinase): 8.00 | pEC50 [5]: 6.96
